This is an account of results in US20250312355A1, “DHCR24 INHIBITORY COMPOUNDS” (ACADEMISCH ZIEKENHUIS LEIDEN (H.O.D.N. LUMC), priority 2022, published 2025).

Where two headings read alike, the source gives them in different places.

In one data set the test system is HL-60 cells. In words: IC50 determination: incorporation of 13C-acetate into cholesterol in HL-60 cells (GC-MS). Particulars: Homo sapiens, read-out: HL60 assay activity. It counts as cell-based. On the procedure:
Two test concentrations (1 μM and 50 μM) were used. The compounds were dissolved in ethanol or DMSO and the testing-stock solutions are prepared taking a final dilution of 1:100 into account. Ultimately 10 μL of testing stock solution were added to 990 μL of lipid-free medium containing 1% lipoprotein deficient serum (LPDS) without antibiotics. HL-60 cells (1×10^6 cells) were incubated in 24-well plates in 1.0 mL of medium consisting of 990 μL of lipid free medium with 1% LPDS and 10 μL of respective inhibitor solution.
For IC50 determination, the incorporation of labelled acetate in the target molecule cholesterol is being assessed and the protocol is altered in the following manner: to each well 10 μL of a sterile sodium 2-^13C-acetate solution (6.25 mg/mL) were added before the addition of the inhibitor solution, leading to a final ^13C-acetate concentration of 62.5 μg/mL. After saponification 3×25 μL aliquots are taken for protein determination applying the Bradford reagent. After work-up and silylation, GC-MS analysis allows the quantification ^13C incorporation into cholesterol according to the below given formula. The percentage inhibition (see formula) relative to untreated control samples (0% inhibition) was plotted against the logarithmic inhibitor concentration using Graph Pad Prism 4 (or higher). A bottom level constant equal to 0 is set as constraint using a sigmoidal dose-response model with a various slope. All samples are normalised to their protein. For each concentration the inhibitory percentage is determined in triplicate.
The above formula is the calculation formula for the percentage inhibition, where AS represents the area sample; AI.S.C. represents the area internal standard control; PCC represents the protein content control; AC represents the area control; AI.S.S. represents the area internal standard sample; and PCs represents the protein content sample.

Data set [1] deals with male E3L.CETP mice. In words: Rescue experiment: E3L.CETP mice on HFCD for 10 weeks, then SH42 for additional 8 weeks. It counts as in vivo. The source says:
Hemizygous APOE*3-Leiden (E3L) mice were crossbred with homozygous human cholesteryl ester transfer protein (CETP) transgenic mice to generate heterozygous E3L.CETP mice on a C57BL/6J background [M. Westerterp et al., “Cholesteryl ester transfer protein decreases high-density lipoprotein and severely aggravates atherosclerosis in APOE*3-Leiden mice”; Arterioscler Thromb Vasc Biol 26, 2552-2559 (2006)]. Because of phenotypical heterogeneity of E3L. CETP mice, non-responder mice were identified by 4-hour fasting plasma lipid levels, i.e., total cholesterol levels <2 mM and triglyceride levels <2 mM, and excluded before special diet treatment. LXRα-deficient mice (also on C57BL/6J background), generated by Deltagen using gene-targeting methods as described [T. Plosch et al., “Abcg5/Abcg8-independent pathways contribute to hepatobiliary cholesterol secretion in mice”; Am J Physiol Gastrointest Liver Physiol, 291, G414-423 (2006)(33)] were provided by Tularik (San Francisco, CA, US). Mice were group-housed in individually ventilated cages in standard conditions at room temperature (22° C.) with 40±5% relative humidity and a 12-h light/dark (7 am lights on; 7 pm lights off) cycle. All animals received humane care according to the criteria outlined in the NIH “Guide for the Care and Use of Laboratory Animals”. All animal procedures were performed in conformance with the guidelines from Directive 2010/63/EU of the European Parliament on the protection of animals used for scientific purposes.
At the age of 10-12 weeks, male E3L.CETP mice and LXRα-deficient mice were fed a high fat high cholesterol diet (HFCD; Altromin, Germany) containing 60% (energy) fat and 1% (wt/wt) cholesterol, and were randomized into two groups treated with either the DHCR24 inhibitor compound of Example 11 [also referred to herein as SH42] (0.5 mg·mouse^−1) or vehicle (saline containing 3.3% ethanol and 3.3% Cremophor EL) 3 times per week by intraperitoneal injection. E3L.CETP mice were treated for 4 weeks (n=6 mice per group) and 8 weeks (n=8 mice per group) to evaluate effects on hepatic immune cells via flow cytometry analysis and hepatic steatosis via quantitative lipidomic analysis, respectively. LXRα-deficient mice were treated with either SH42 (n=11 mice) or vehicle (n=10 mice) for 4 weeks to evaluate effects on hepatic steatosis and immune cells. In a rescue experiment, male E3L.CETP mice were fed with HFCD for 10 weeks first and cotreated with SH42 (0.5 mg mouse^−1) or vehicle (saline containing 3.3% ethanol and 3.3% Cremophor EL) 3 times per week by intraperitoneal injection for additional 8 weeks.
Body weight was measured weekly. Body composition (i.e. fat body and lean body mass; EchoMRI-100; EchoMRI, Houston, TX, USA) was evaluated before and after intervention. Food intake was determined during the treatment period.

Data set [2] relates to male E3L.CETP mice. The data set is described as follows: E3L.CETP mice on HFCD, SH42 for 4 weeks, flow cytometry of hepatic immune cells. It counts as in vivo. The source says:
Hemizygous APOE*3-Leiden […]) mice were crossbred with homozygous human cholesteryl ester transfer protein (CETP) transgenic mice to generate heterozygous E3L.CETP mice on a C57BL/6J background [[…] al., “Cholesteryl ester transfer protein decreases high-density lipoprotein and severely aggravates atherosclerosis in APOE*3-Leiden mice”; Arterioscler Thromb Vasc Biol 26, 2552-2559 (2006)]. Because of phenotypical heterogeneity of E3L. CETP mice, non-responder mice were identified by 4-hour fasting plasma lipid levels, i.e., total cholesterol levels <2 mM and triglyceride levels <2 mM, and excluded before special diet treatment. LXRα-deficient mice (also on C57BL/6J background), generated by Deltagen using gene-targeting methods as described [T. Plosch et al., “Abcg5/Abcg8-independent pathways contribute to hepatobiliary cholesterol secretion in mice”; Am J Physiol Gastrointest Liver Physiol, 291, […]-423 (2006)(33)] were provided by Tularik (San Francisco, CA, US). […] All animals received humane care according to the criteria outlined in the NIH “Guide for the Care and Use of Laboratory Animals”. All animal procedures were performed in conformance with the guidelines from Directive 2010/63/EU of the European Parliament on the protection of animals used for scientific purposes. At the age of 10-12 weeks, male E3L.CETP mice and LXRα-deficient mice were fed a high fat high cholesterol diet (HFCD; […] LXRα-deficient mice were treated with either SH42 (n=11 mice) or vehicle (n=10 mice) for 4 weeks to evaluate effects on hepatic steatosis and immune cells. In a rescue experiment, male E3L.CETP mice were fed with HFCD for 10 weeks first and cotreated with SH42 (0.5 mg mouse^-1) or vehicle (saline containing 3.3% ethanol and 3.3% Cremophor EL) 3 times per week by intraperitoneal injection for additional 8 weeks.

Data set [3] relates to male E3L.CETP mice. The data set is described as follows: E3L.CETP mice on high fat high cholesterol diet, SH42 for 8 weeks (hepatic steatosis, lipidomics, immunohistochemistry, plasma lipids). It counts as in vivo.
Where [4] appears, read: HL-60 cells, 24 h, 13C-acetate incorporation into cholesterol.
The mark [5] stands for this setting: 10 weeks HFCD, then 8 weeks treatment.
Setting [6] is: 8 weeks, absolute concentration.
Setting [7] is: after 8 weeks of treatment, vs control group.

Consider `C[C@H](CSSc1ccccn1)C1CCC2C3=CCC4C[C@@H](O)CC[C@]4(C)C3CC[C@@]21C` (some centres unmarked) [Example 5], for which the IC50 in the data set with HL-60 cells (setting [4]) was 0.417 µM.
In the case of `CC(=O)O[C@H]1CC[C@@]2(C)C(CC=C3C2CC[C@@]2(C)C3CCC2[C@H](C)COC=O)C1` (some centres unmarked) [Example 11], in the data set with male E3L.CETP mice [1] (setting [5]), the body composition result is given as “did not significantly influence”; the “collagen content (liver fibrosis), change” value is given as −50%; the “hepatic crown-like structures, change” value is −89%; the hepatic steatosis entry was “No difference”. Also, in the data set with male E3L.CETP mice [1] (setting [5]), the “increase in plasma desmosterol levels” value is given as above 400 fold; the liver weight entry was “No difference”; the “plasma alanine transaminase (ALT), change” value is −42%; the total body weight entry is recorded as “did not significantly influence”. The F4/80 positive area result with male E3L.CETP mice [1] (mouse, in vivo) is listed as “without significant influence”. In the data set with male E3L.CETP mice [2], the circulating neutrophils entry is “without affecting”; the “hepatic neutrophils, change” value was −50%; the “monocytes in liver, change” value is given as −79%. Also, in the data set with male E3L.CETP mice [2] (flow cytometry), the “MHCII+/CD11c+ activated KCs” value is given as “did not significantly reduce”; the “MHCII−/CD11c− resting KCs, change” value is “+21%”; the “total Kupffer cells (KCs), change” value is on record as “+44%”. Moreover, the “total hepatic leukocytes, change” value in the data set on male E3L.CETP mice [2] (flow cytometry, p=0.09) was −37%. For the same molecule, the “monocytes in blood, change” value with male E3L.CETP mice [2] (p=0.06) is recorded as −43%. The food intake result with male E3L.CETP mice [3] (0.5 mg/mouse i.p. 3 times per week, 8 weeks, vs vehicle) is “did not affect”. Also, the “HFCD-induced body weight gain” value in the data set on male E3L.CETP mice [3] (0.5 mg/mouse i.p. 3 times per week, vs control group) is “temporarily preventing”. Further, in the data set with male E3L.CETP mice [3] (8 weeks), the fasting plasma glucose result is “did not affect”; the fasting plasma insulin entry was “did not affect”; the “homeostatic Model Assessment for Insulin Resistance (HOMA-IR) scores” value was “did not affect”; the “weight of various tissues (liver, white adipose tissue, kidney, heart, lung, spleen, brown adipose tissue)” value is on record as “unchanged”. In addition, in the data set with male E3L.CETP mice [3] (setting [6]), the “plasma levels of FFA, change” value is on record as −16%; the “plasma levels of total DAG” value is recorded as “did not affect”; the “plasma levels of total TAG” value is “did not affect”. The “plasma levels of CE, change” value in the data set on male E3L.CETP mice [3] (8 weeks, absolute concentration, p=0.08) was −24%. For the same molecule, in the data set on male E3L.CETP mice [3] (8 weeks, immunohistochemistry), the “hepatic F4/80 content, change” value was −29% and the “number of hepatic crown-like structures, change” value is recorded as −79%. The “hepatic free fatty acids (FFA), change” value in the data set on male E3L.CETP mice [3] (8 weeks, liver) is given as −16%. In the data set with male E3L.CETP mice [3] (8 weeks, liver lipidomics), the “other liver lipid classes, including CER, PC, PE and SM (relative)” value was “relative increase”; the “relative reduction of DAG in liver lipid class composition” value is given as −22%; the “relative reduction of TAG in liver lipid class composition” value is reported as −21%. Also, the “increase of hepatic desmosterol levels” value in the data set on male E3L.CETP mice [3] (8 weeks, liver, vs vehicle) is on record as 10 fold. Further, in the data set on male E3L.CETP mice [3] (8 weeks, plasma), the “circulating CE (relative, plasma lipidome)” value was “relatively decreased”; the “lactosylceramides (LCER), phosphatidylcholine (PC) and phosphatidylethanolamine (PE) (relative, plasma lipidome)” value is on record as “relatively increasing”. In the data set with male E3L.CETP mice [3] (8 weeks, vs control treatment), the “hepatic steatosis score (HE staining), change” value is given as −58% and the “liver lipid area, change” value is reported as −35%. In the data set with male E3L.CETP mice [3] (setting [7]), the “body composition (lean body mass and fat body mass)” value was “comparable to that of the control group”; the body weight entry is on record as “comparable to that of the control group”. Besides, the plasma desmosterol levels in the data set on male E3L.CETP mice [3] (plasma, from undetectable levels (<0.5 μg·mL^−1)) stood at 3.1 ± 0.4 µg/mL.
Turning to `CC(=O)O[C@H]1CC[C@@]2(C)C(CC=C3C2CC[C@@]2(C)C3CCC2[C@H](C)COC(=O)CN(C)C)C1` (some centres unmarked) [Example 25], the IC50 with HL-60 cells (HL-60, 24 h) was 0.006 µM.
The same measure, in the same setting: with `C[C@H](CO)C1CCC2C3CC=C4C[C@@H](O)CC[C@]4(C)C3CC[C@@]21C` (some centres unmarked) [Example 29] the figure was 0.003 µM; with `C[C@@H](CO)[C@H]1CC[C@H]2C3=CCC4C[C@@H](O)CC[C@]4(C)[C@H]3CC[C@]12C` (stereo partly drawn) [Example 30, (3S,20R)-20-(Hydroxymethyl)-pregn-7-en-3-ol], 0.3 µM; with `C[C@H](CO)[C@H]1CC[C@H]2C3=CCC4C[C@H](O)CC[C@]4(C)[C@H]3CC[C@]12C` (stereo partly drawn) [Example 31, (3R,20S)-20-(Hydroxymethyl)-pregn-7-en-3-ol], 0.28 µM.
As to `C[C@H](CO)C1CCC2c3ccc4c(c3CC[C@@]21C)CC[C@H](O)C4` (stereo partly drawn) [Example 33, (3S,20S)-20-(Hydroxymethyl)-pregn-5,7,9-trien-3-ol], the IC50 in the data set on HL-60 cells (setting [4]) turned out to be 0.175 µM.
Regarding `CC(=O)O[C@H]1CC[C@@]2(C)C(CC=C3[C@@H]4CC[C@H]([C@H](C)CCOC=O)[C@@]4(C)CC[C@@H]32)C1` (stereo partly drawn) [Example 34, (3S,20R)-20-(2-Formyloxyethyl)-pregn-7-en-3-yl Acetate], the IC50 in the data set on HL-60 cells (setting [4]) was 1 µM.
Same read-out and setting: under `C=C(F)C(=O)OC[C@@H](C)C1CCC2c3ccc4c(c3CC[C@@]21C)CC[C@H](OC(C)=O)C4` (stereo partly drawn) [Example 35, (3S,20S)-20-[(2-Fluoroacryloyloxy)methyl]-pregn-5,7,9-trien-3-yl Acetate] stands 0.13 µM; under `C=C(F)C(=O)N(C)C[C@@H](C)[C@H]1CC[C@H]2C3=CCC4C[C@@H](OC(C)=O)CC[C@]4(C)[C@H]3CC[C@]12C` (stereo partly drawn) [Example 37, (3S,20S)-20-[(2-Fluoro-N-methylacrylamido)methyl]-pregn-7-en-3-yl Acetate], 0.11 µM.
